Results on one molecule are retold here after ChEMBL document CHEMBL4840355, “Antitumor and toxicity study of mitochondria-targeted triptolide derivatives using triphenylphosphine (TPP+) as a carrier” (Bioorg Med Chem, 2021).

Series [1] concerns HepG2. As to the kind of experiment: Induction of apoptosis in human HepG2 cells assessed as induction of morphological changes by measuring nuclear shrinkage and cleavage at 25 to 100 nM measured after 48 hrs by DAPI staining based inverted fluorescence microscope analysis. The series is classed as functional, cell-based. Conditions: dose 25-100 nM.
The subject of series [2] is HepG2. The series is described as follows: Induction of apoptosis in human HepG2 cells assessed as live cells at 75 nM measured after 48 hrs by Annexin V-FITC/PI double staining based flow cytometry analysis (Rvb= 94.8%). The series is classed as functional. In general terms: In flow cytometry, cells or beads pass a laser one at a time.
Series [3] in a line: Toxicity in zebrafish AB assessed as pericardial edema at 12 uM measured at 72 hrs postfertilization. On the set-up: species or system Danio rerio. Conditions: in vivo.
Series [4] concerns HepG2. As to the kind of experiment: Induction of cell cycle arrest in human HepG2 cells assessed as accumulation of cells in G0/G1 phase at 50 nM measured after 48 hrs by RNase A/PI staining based flow cytometry analysis (Rvb= 56.42+/- 0.27%). The series is classed as functional.
Series [5] concerns HepG2. As to the kind of experiment: Induction of apoptosis in human HepG2 cells assessed as live cells at 50 nM measured after 48 hrs by Annexin V-FITC/PI double staining based flow cytometry analysis (Rvb= 94.8%). The series is classed as functional.
For series [6], the system named is HepG2. As to the kind of experiment: Induction of apoptosis in human HepG2 cells assessed as late apoptotic cells at 75 nM measured after 48 hrs by Annexin V-FITC/PI double staining based flow cytometry analysis (Rvb= 2.89%). The series is classed as functional.
Series [7] relates to HepG2. The series is described as follows: Antitumor activity against human HepG2 cells xenografted in zebra fish AB assessed as tumor growth inhibition at 1 uM measured after 48 hrs by fluorescence microscopic analysis. The series is classed as functional, cell-based. A general note: Xenograft models place foreign cells or tissue in a host animal.
In series [8] the test system is HepG2. The series is described as follows: Induction of mitochondrial membrane potential loss in human HepG2 cells assessed as proportion of cells with hyperpolarized mitochondria at 150 nM measured after 48 hrs by JC-1 staining based flow cytometry analysis (Rvb= 80.9%). The series is classed as functional.
In series [9] the test system is HepG2. As to the kind of experiment: Induction of apoptosis in human HepG2 cells assessed as late apoptotic cells at 50 nM measured after 48 hrs by Annexin V-FITC/PI double staining based flow cytometry analysis (Rvb= 2.89%). The series is classed as functional.
Series [10] is described as follows: Cytotoxicity against human A549/DDP cells assessed as inhibition of cell proliferation measured after 48 hrs by MTT assay. The series is classed as functional, cell-based.
The subject of the next series is PC-3. As to the kind of experiment: Cytotoxicity against human PC-3 cells assessed as inhibition of cell proliferation measured after 48 hrs by MTT assay. Conditions: PC-3, 48 h. The series is classed as functional, cell-based. (In general: Formazan colour is commonly taken as a measure of viable cells.)
Series [11] deals with HepG2. As to the kind of experiment: Induction of apoptosis in human HepG2 cells assessed as necrotic cells at 150 nM measured after 48 hrs by Annexin V-FITC/PI double staining based flow cytometry analysis (Rvb= 0.13%). The series is classed as functional.
A short description of series [12]: Hepatotoxicity in transgenic zebrafish Tg(1-fabp:EGFP) assessed as liver damage by measuring decrease in fluorescence intensity and area at 0.05 to 0.5 uM measured after 96 hrs. The series is classed as toxicity, tissue-based, Danio rerio. As to conditions: in vivo, dose 0.05-0.5 µM.
A short description of series [13]: Toxicity in zebrafish AB assessed as hatching rate at <12 uM measured at 72 hrs postfertilization. On the set-up: species or system Danio rerio. Conditions: in vivo.
Series [14] has as its system HepG2. As to the kind of experiment: Induction of mitochondrial membrane potential loss in human HepG2 cells assessed as proportion of cells with depolarized mitochondria at 50 nM measured after 48 hrs by JC-1 staining based flow cytometry analysis (Rvb= 9.1%). The series is classed as functional.
Series [15] deals with HepG2. As to the kind of experiment: Induction of apoptosis in human HepG2 cells assessed as necrotic cells at 50 nM measured after 48 hrs by Annexin V-FITC/PI double staining based flow cytometry analysis (Rvb= 0.13%). The series is classed as functional.

pIC50: −log10 of the molar value. The source made the active and inactive calls. The rule behind the calls is not given here.

On to `CC(C)[C@]12O[C@H]1[C@@H]1O[C@]13[C@]1(O[C@H]1C[C@H]1C4=C(CC[C@@]13C)C(=O)OC4)[C@@H]2OC(=O)CCCCC[P+](c1ccccc1)(c1ccccc1)c1ccccc1.[Br-]`, for which the result in the series on HepG2 [1] and with HepG2 [7] was Active. Moreover, the Activity was 76.8% in the series on HepG2 [2]; “Toxic” in series [3]; 72.22% in the series on HepG2 [4]; 91.2% with HepG2 [5]; 7.47% in the series with HepG2 [6]; 51.1% in the series with HepG2 [8]. Besides, the Activity in the series on HepG2 [9] is recorded as 1.23%; in the series with HepG2 [11], 0.1%; in series [12], “Non-Toxic”; in series [13], “Non-Toxic”; with HepG2 [14], 25.3%; in the series on HepG2 [15] it was 0.63%. Besides, the pIC50 in [10] was less than 5.00; in the series on PC-3 it was 6.73.

The term pIC50 denotes the IC50 on a negative log10 scale, so that one unit is a factor of ten.
